Data on 22 compounds can be found in PubChem BioAssay (NCI).

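Cells were grown in 96-well plates and exposed to each compound for 48 hours at five concentrations; endpoints were interpolated linearly between bracketing concentrations, or set to the highest concentration if not reached. TGI: concentration producing complete growth inhibition.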

Holding throughout (experiment): inhibition of tumour cell growth, NCI panel, 48 h
The subject of assay [1] is IGROV1 ovarian.
For assay [2], the system named is SF-539 CNS.
Assay [3] concerns NCI/ADR-RES ovarian.
Assay [4] relates to MCF7 breast.
Assay [5] concerns SNB-75 CNS.
For assay [6], the system named is HT29 colon.
Assay [7] has as its system A549 NSCLC.
Assay [8] has as its system TK-10 renal.
Assay [9] relates to EKVX NSCLC.
The subject of assay [10] is A498 renal.

For `COc1ccc(N=C2C(=Nc3ccc(OC)cc3)N(c3ccc(N(C)C)cc3)C(=S)N2c2ccc(OC)cc2)cc1`, the TGI in [1] was over 100 µM; in assay [2] it was over 100 µM; in assay [3] it was over 100 µM; in assay [4] it was over 100 µM; in assay [5] it was over 91.8 µM; in assay [6], over 100 µM. For the same compound, the TGI in assay [7], in assay [8], in assay [9] and in assay [10] was over 100 µM in each case.

`CCCN(CCC)C1CCc2c(ccc3cc[nH]c23)C1` (stereo not given): the TGI in assay [1], in [2], in assay [3], in assay [4], in assay [5] and in assay [6] was over 100 µM each time. Also, the TGI in [7], in assay [8], in [9] and in assay [10] was over 100 µM throughout.

Regarding `O=C(O)CCc1ccc2c(c1)CC1(Cc3ccccc3C1)C2`, the TGI in assay [1] was over 100 µM; in assay [2], over 100 µM; in assay [3], over 100 µM; in [4] it was over 100 µM; in assay [5], 96.4 µM; in assay [6], over 100 µM. The TGI in assay [7], in assay [8], in assay [9] and in [10] was over 100 µM each time.

For the compound `O=C(c1ccc(O)c([N+](=O)[O-])c1)c1ccc(O)c([N+](=O)[O-])c1`, the TGI in assay [1] is over 100 µM; in [2] it was over 100 µM; in [3] it was over 100 µM; in assay [4], over 100 µM; in [5], 85.7 µM; in assay [6] it was over 100 µM. The TGI in assay [7], in assay [8], in [9] and in [10] was over 100 µM throughout.

Turning to `Cc1ccc(S(=O)(=O)N/N=C2/CCC(C(C)(C)C)CC2Br)cc1` (stereo not given), the TGI was over 100 µM in assay [1]; 50.4 µM in [2]; 36.5 µM in assay [3]; 51.9 µM in assay [4]; 87 µM in assay [5]; 88.9 µM in assay [6]. Moreover, the TGI in [7], in assay [8], in assay [9] and in assay [10] was over 100 µM in each case.

Take `COc1ccc2c(c1)c1nn(CCN3CCCCC3)c3ccc4c(=O)n(CCN(C)C)c(=O)n2c4c13`: the TGI is under 0.0174 µM in assay [1]; 0.975 µM in [2]; 1.91 µM in assay [3]; under 0.0504 µM in assay [4]; 0.0711 µM in [5]; 0.0963 µM in [6]. Further, the TGI in assay [7] amounted to 0.0497 µM; in assay [8] it was 0.44 µM; in [9] it was 0.0406 µM; in assay [10] it was 0.119 µM.

On to `Cc1cc(O)cc(O)c1C(=O)O[C@]1(C)C(=O)C=C2C=C(/C=C/C(=O)O)OC=C2C1=O`, for which the TGI in assay [1], in assay [2], in [3], in assay [4], in assay [5] and in assay [6] was over 100 µM in each case. Moreover, the TGI in assay [7], in assay [8], in [9] and in [10] was over 100 µM each time.

For the compound `CCCc1nnc2sc(COc3cc(Cl)c(OCc4nn5c(CCC)nnc5s4)cc3Cl)nn12`, the TGI in assay [1] is over 100 µM; in [2], over 100 µM; in [3] it was over 100 µM; in assay [4], 72.9 µM; in assay [5], 45.3 µM; in assay [6] it was over 100 µM. Also, the TGI is over 100 µM in [7], over 100 µM in assay [8], 82.2 µM in assay [9] and 98.4 µM in [10].

With `Cc1cc2oc(C)c(S(=O)(=O)NC(=O)Nc3ccc(Cl)cc3)c(=O)c2c(=O)o1`, the TGI in assay [1], in [2], in [3], in [4], in [5] and in assay [6] was over 100 µM in each case. The TGI in assay [7], in assay [8], in assay [9] and in assay [10] was over 100 µM in each case.

`N#CC[N+]1(Cc2ccccn2)CCCC1`: the TGI in assay [1], in assay [2], in assay [3], in assay [4], in assay [5] and in [6] was over 100 µM throughout. In addition, the TGI in assay [7], in [8], in assay [9] and in assay [10] was over 100 µM each time.

Regarding `COc1ccc2c(c1)CCN1CCCc3ccccc3C21` (stereo not given), the TGI in assay [1] is over 100 µM; in assay [2], 34.7 µM; in [3], over 100 µM; in assay [4], over 100 µM; in assay [5], 78.5 µM; in [6], over 100 µM. Besides, the TGI in [7], in assay [8], in assay [9] and in assay [10] was over 100 µM throughout.

In the case of `O=C(N/N=C(/COc1ccccc1Cl)N=Cc1ccncc1)c1ccncc1`, the TGI in assay [1] is over 100 µM; in assay [2], over 100 µM; in assay [3], over 100 µM; in assay [4] it was over 100 µM; in assay [5] it was 98.7 µM; in assay [6] it was over 100 µM. Moreover, the TGI in assay [7], in assay [8], in assay [9] and in [10] was over 100 µM each time.

As to `Cc1c(O)c(OC2OC(CO)C(O)C(O)C2O)cc2c1C=C[C@@H]1[C@@]2(C)C(=O)C[C@]2(C)[C@@H]([C@@](C)(O)C(=O)CCC(C)(C)O)[C@H](O)C[C@@]12C` (stereo not given in full), the TGI in [1] is 44.3 µM; in assay [2] it was 43.9 µM; in assay [3], 69.4 µM; in [4], over 100 µM; in assay [5], 62.9 µM; in [6], 83.1 µM. In addition, the TGI in assay [7] stood at 83 µM; in assay [8], 33.4 µM; in assay [9] it was 91.4 µM; in assay [10] it was 36.7 µM.

Turning to `Cc1ccc(S(=O)(=O)n2ccc(-c3ccc4ccn(S(=O)(=O)c5ccc(C)cc5)c4c3)c2)cc1`, the TGI in [1], in assay [2], in assay [3], in assay [4], in assay [5] and in assay [6] was over 100 µM each time. In addition, the TGI in assay [7], in assay [8], in assay [9] and in [10] was over 100 µM throughout.

For `CCOC(=O)C(NC(=O)CC)(Nc1ccc(F)c(Cl)c1)C(F)(F)F` (stereo not given), the TGI in assay [1], in assay [2], in assay [3], in [4], in assay [5] and in assay [6] was over 100 µM in each case. Further, the TGI in [7], in assay [8], in [9] and in assay [10] was over 100 µM throughout.

With `CCCC(=O)NC(Nc1ccc(F)cc1)(C(F)(F)F)C(F)(F)F`, the TGI in assay [1], in [2], in assay [3], in assay [4], in assay [5] and in [6] was over 100 µM throughout. The TGI in [7], in assay [8], in assay [9] and in assay [10] was over 100 µM in each case.

As to `CCCCCCCCCCCCCCCCCC(=O)Nc1ccn(C2CCC(COP(=O)(O)O)O2)c(=O)n1` (stereo not given), the TGI in assay [1], in [2], in assay [3], in [4], in assay [5] and in [6] was over 100 µM in each case. Also, the TGI in assay [7], in assay [8], in assay [9] and in assay [10] was over 100 µM throughout.

In the case of `COC12C=CC(C=C1C#N)CC2` (stereo not given) (tested in a mixture with another compound), the TGI in [1], in assay [2], in assay [3], in assay [4], in assay [5] and in assay [6] was over 100 µM throughout. The TGI in [7], in assay [8], in assay [9] and in assay [10] was over 100 µM in each case.

Regarding `C=Cc1nc(C#N)c(N)o1`, the TGI in [1], in assay [2], in assay [3], in assay [4], in assay [5] and in assay [6] was over 100 µM each time. Moreover, the TGI in assay [7], in assay [8], in assay [9] and in [10] was over 100 µM in each case.

On to `O=C1CS[C@@](CC(c2ccc(Cl)cc2)c2ccc(Cl)cc2)(c2ccc(Cl)cc2)N1`, for which the TGI is over 100 µM in assay [1]; 64.4 µM in assay [2]; over 100 µM in assay [3]; 26.4 µM in [4]; over 100 µM in assay [5]; over 100 µM in assay [6]. The TGI is over 100 µM in assay [7], over 100 µM in assay [8], over 100 µM in assay [9] and 45.8 µM in assay [10].

As for `CN(C)CCNC(=O)c1ccc(Cl)c2cc3ccccc3nc12`, the TGI was determined as 11.3 µM in [1]; 3.28 µM in assay [2]; 5.65 µM in [3]; 3.58 µM in assay [4]; 5.84 µM in assay [5]; 4.9 µM in assay [6]. For the same compound, the TGI in assay [7] amounted to 3.08 µM; in assay [8] it was 5.95 µM; in assay [9] it was 4.78 µM; in [10], 1.33 µM.

In the case of `Cc1c2ccccc2c(C)n2c1nc1ccccc12`, the TGI in assay [1] was 43.8 µM; in [2], 18.6 µM; in assay [3], 39.5 µM; in assay [4], 13.3 µM; in assay [5], 27.7 µM; in assay [6], 69 µM. The TGI was found to be 23.2 µM in assay [7], 44.4 µM in [8], 54.9 µM in assay [9] and 25.5 µM in [10].
